Eleven compounds from ChEMBL document CHEMBL1201862, “PubChem BioAssay data set” (2004) can be followed below.

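Each compound was tested at five concentrations against cells in 96-well plates for 48 hours. At the GI50, growth is halved.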 Active and inactive are the calls of the source. Rule as the data show it: active = GI50 up to about 1.1 µM and inactive = higher. Bounds are passed on as bounds.

Among the test systems are A549; ACHN; HCT-116; HOP-62; Hs-578T; K562; LOX IMVI; M14; MOLT-4; NCI/ADR-RES; OVCAR-3; OVCAR-8; PC-3; SK-MEL-28; SR; SW-620; U-251; UACC-62; DU-145; HL-60.
Common to all, as to experiment: DTP human tumour cell line panel, 48 h

Regarding `Oc1ccc(Oc2cc3c(cc2Oc2ccc(O)cc2)-c2nc-3nc3[nH]c(nc4nc(nc5[nH]c(n2)c2cc(Oc6ccc(O)cc6)c(Oc6ccc(O)cc6)cc52)-c2cc(Oc5ccc(O)cc5)c(Oc5ccc(O)cc5)cc2-4)c2cc(Oc4ccc(O)cc4)c(Oc4ccc(O)cc4)cc32)cc1`, the GI50 with A549, with ACHN, with HCT-116, in the test with HOP-62, in the test on Hs-578T and in the test with K562 was > 100 µM (inactive) in each case. Also, the GI50 in the test on LOX IMVI is 39.9 µM (inactive); in the test on M14, 16.7 µM (inactive); in the test on MOLT-4, > 100 µM (inactive); with NCI/ADR-RES it was > 100 µM (inactive); in the test on OVCAR-3 it was > 100 µM (inactive); in the test with OVCAR-8, > 100 µM (inactive). For the same compound, the GI50 was > 100 µM (inactive) in the test with PC-3; > 100 µM (inactive) in the test with SK-MEL-28; > 100 µM (inactive) in the test with SR; > 100 µM (inactive) in the test on SW-620; > 100 µM (inactive) with U-251; 76 µM (inactive) in the test on UACC-62.

With `COc1cc(NC(C)CCCN)c2nccc(C)c2c1` (stereo not drawn), the GI50 with A549 is 55.7 µM (inactive); in the test with ACHN it was 26.6 µM (inactive); in the test on DU-145, 48.3 µM (inactive); with HCT-116 it was 15.8 µM (inactive); in the test with HL-60, 2.81 µM (inactive); with HOP-62, 17.1 µM (inactive). Moreover, the GI50 in the test with Hs-578T is 26.8 µM (inactive); in the test with M14, 18.9 µM (inactive); in the test on NCI/ADR-RES it was 11.6 µM (inactive); in the test with OVCAR-3 it was 23.1 µM (inactive); in the test with SK-MEL-28 it was 19.5 µM (inactive); in the test on SR it was 19.7 µM (inactive). The GI50 in the test on U-251 was 19.6 µM (inactive); in the test with UACC-62 it was 19.9 µM (inactive).

In the case of `COc1cc(C(=O)O[C@H]2CCC3CCC2N3C)cc(OC)c1OC` (stereo partly drawn), the GI50 with A549 is > 100 µM (inactive); with ACHN, > 100 µM (inactive); with DU-145, > 100 µM (inactive); in the test on HCT-116, > 100 µM (inactive); with HL-60, 63.7 µM (inactive); with HOP-62 it was > 100 µM (inactive). Moreover, the GI50 in the test with Hs-578T, with K562, in the test with LOX IMVI, in the test with M14, with MOLT-4 and in the test with NCI/ADR-RES was > 100 µM (inactive) each time. For the same compound, the GI50 in the test on OVCAR-8, in the test with SK-MEL-28, in the test on SR, in the test on SW-620 and in the test on U-251 was > 100 µM (inactive) each time.

Regarding `O=C(NCP(=O)(Oc1ccccc1)Oc1ccccc1)OCc1ccccc1`, the GI50 is 70.8 µM (inactive) in the test on A549; 80.5 µM (inactive) with ACHN; > 100 µM (inactive) in the test with HL-60; 39.8 µM (inactive) in the test on HOP-62; 40.7 µM (inactive) with Hs-578T; > 100 µM (inactive) with K562. The GI50 in the test on LOX IMVI is > 100 µM (inactive); in the test with M14 it was > 100 µM (inactive); in the test on MOLT-4 it was > 100 µM (inactive); with NCI/ADR-RES it was > 100 µM (inactive); in the test on OVCAR-3 it was 55.1 µM (inactive); with OVCAR-8, > 100 µM (inactive). In addition, the GI50 in the test with PC-3 is 43.9 µM (inactive); in the test on SK-MEL-28 it was > 100 µM (inactive); with SR it was > 100 µM (inactive); with SW-620 it was > 100 µM (inactive); in the test on U-251, > 100 µM (inactive); in the test on UACC-62 it was 62.8 µM (inactive).

Take `C1CSCCSCCCSC2CCCCC2SC1` (stereo not drawn): the GI50 in the test with A549 was > 100 µM (inactive); in the test with DU-145, > 100 µM (inactive); in the test with HCT-116 it was > 100 µM (inactive); in the test on HL-60, 17.3 µM (inactive); in the test on HOP-62 it was > 100 µM (inactive); in the test with K562, 45 µM (inactive). Also, the GI50 in the test on LOX IMVI is > 100 µM (inactive); in the test on M14 it was > 100 µM (inactive); with MOLT-4, 26 µM (inactive); in the test with NCI/ADR-RES it was 83.9 µM (inactive); in the test with OVCAR-3, > 100 µM (inactive); in the test on OVCAR-8, > 100 µM (inactive). Further, the GI50 was 68.2 µM (inactive) in the test with PC-3; > 100 µM (inactive) in the test with SK-MEL-28; 46.5 µM (inactive) with SR; > 100 µM (inactive) in the test on SW-620; > 100 µM (inactive) with U-251; > 100 µM (inactive) in the test on UACC-62.

Regarding `O=C(O)c1ccccc1CC1Cc2cc3c(cc2C1)CCC3`, the GI50 is 95.1 µM (inactive) with A549; > 100 µM (inactive) in the test on ACHN; > 100 µM (inactive) in the test with DU-145; > 100 µM (inactive) in the test on HCT-116; > 100 µM (inactive) with HL-60; > 100 µM (inactive) with HOP-62. Also, the GI50 in the test with Hs-578T, in the test on K562, in the test with LOX IMVI, in the test with M14, with MOLT-4 and in the test on NCI/ADR-RES was > 100 µM (inactive) throughout. Besides, the GI50 in the test on OVCAR-3, in the test on OVCAR-8, in the test with SK-MEL-28, in the test on SR, in the test on SW-620 and with U-251 was > 100 µM (inactive) throughout. In addition, in the test with UACC-62, the GI50 is 92.3 µM (inactive).

On to `CC(C)(C)[Si](C)(C)OCCC1CC2(S(=O)(=O)C3=CC=C=C=C3)ON1CC2S(=O)(=O)c1ccccc1` (stereo not drawn), for which the GI50 with A549, in the test on ACHN, in the test on DU-145, in the test on HCT-116, with HOP-62 and in the test on Hs-578T was > 10 µM (inactive) throughout. Besides, the GI50 in the test on M14, with MOLT-4, in the test on NCI/ADR-RES, in the test on OVCAR-3, in the test on OVCAR-8 and in the test on SK-MEL-28 was > 10 µM (inactive) in each case. In addition, the GI50 in the test with SW-620 is > 10 µM (inactive); in the test with U-251 it was > 100 µM (inactive); with UACC-62, > 10 µM (inactive).

As to `O=c1[nH]c(=O)n(C2CC(O)C(COP(=O)(O)OC3CC(n4cc(F)c(=O)[nH]c4=O)OC3COP(=O)(O)OC3CC(n4cc(F)c(=O)[nH]c4=O)OC3COP(=O)(O)OC3CC(n4cc(F)c(=O)[nH]c4=O)OC3COP(=O)(O)OC3CC(n4cc(F)c(=O)[nH]c4=O)OC3COP(=O)(O)OC3CC(n4cc(F)c(=O)[nH]c4=O)OC3COP(=O)(O)OC3CC(n4cc(F)c(=O)[nH]c4=O)OC3COP(=O)(O)OC3CC(n4cc(F)c(=O)[nH]c4=O)OC3COP(=O)(O)OC3CC(n4cc(F)c(=O)[nH]c4=O)OC3COP(=O)(O)OC3CC(n4cc(F)c(=O)[nH]c4=O)OC3CO)O2)cc1F` (stereo not drawn), the GI50 was < 0.005 µM (active) with A549; < 0.005 µM (active) in the test on ACHN; < 0.005 µM (active) in the test with DU-145; 0.0109 µM (active) with HCT-116; 0.0126 µM (active) in the test on HL-60; < 0.005 µM (active) in the test with HOP-62. Moreover, the GI50 in the test with K562 is 2.36 µM (inactive); with LOX IMVI, < 0.005 µM (active); in the test on M14 it was < 0.005 µM (active); with MOLT-4, 0.0052 µM (active); in the test on NCI/ADR-RES, < 0.005 µM (active); with OVCAR-8 it was < 0.005 µM (active). Further, the concentration for 50% growth inhibition (GI50) in the test on PC-3 was 0.0767 µM (active); in the test on SK-MEL-28, 0.286 µM (active); with SR, < 0.005 µM (active); in the test with SW-620, > 50 µM (inactive); in the test with U-251, 0.115 µM (active); in the test on UACC-62, < 0.005 µM (active).

With `COc1cccc(-c2cc(O)c3cc(NC(C)=O)ccc3n2)c1`, the GI50 in the test on A549 is 61.7 µM (inactive); with ACHN it was > 100 µM (inactive); in the test with HOP-62, 32.4 µM (inactive); in the test with Hs-578T, 2.63 µM (inactive); in the test on LOX IMVI, 22.5 µM (inactive); with M14, 27.2 µM (inactive). Also, the GI50 in the test with MOLT-4 is 5.27 µM (inactive); in the test on NCI/ADR-RES, 62.8 µM (inactive); with OVCAR-8 it was 25.6 µM (inactive); in the test on PC-3, 23.7 µM (inactive); in the test with SK-MEL-28, 33.2 µM (inactive); in the test with SR, 2.34 µM (inactive). Moreover, the GI50 in the test with SW-620 was 47.8 µM (inactive); with U-251 it was 9.57 µM (inactive); with UACC-62, 17.4 µM (inactive).

On to `COc1cccc(Cc2cc(=O)c3ccc(C)nc3[nH]2)c1`, for which the GI50 in the test with A549 was > 100 µM (inactive); in the test on DU-145, > 100 µM (inactive); in the test with HCT-116, > 100 µM (inactive); in the test on HL-60 it was 55.5 µM (inactive); in the test with HOP-62 it was > 100 µM (inactive); in the test with Hs-578T, 60.1 µM (inactive). Moreover, the GI50 with K562 is 86.7 µM (inactive); in the test on LOX IMVI, > 100 µM (inactive); with M14 it was > 100 µM (inactive); in the test with MOLT-4, 41.3 µM (inactive); in the test on NCI/ADR-RES, > 100 µM (inactive); in the test with OVCAR-3 it was > 100 µM (inactive). Besides, the GI50 was > 100 µM (inactive) in the test with OVCAR-8; > 100 µM (inactive) in the test with SK-MEL-28; 35.8 µM (inactive) in the test on SR; > 100 µM (inactive) in the test with SW-620; > 100 µM (inactive) in the test on U-251; > 100 µM (inactive) in the test with UACC-62.

For `COC(=O)C1=C(O)C(C(=O)OC)[C@]2(O)[C@H](C(=O)OC)[C@H]1C[C@@H](c1ccc([N+](=O)[O-])cc1)[C@H]2C(=O)OC` (stereo partly drawn), the GI50 with A549 was 21.3 µM (inactive); in the test on ACHN it was 18.1 µM (inactive); in the test with DU-145 it was 34.7 µM (inactive); with HCT-116, 14.7 µM (inactive); with HL-60, 14.3 µM (inactive); with HOP-62 it was 34.6 µM (inactive). The GI50 with K562 was 10.2 µM (inactive); with LOX IMVI, 13 µM (inactive); in the test with M14 it was 15.7 µM (inactive); in the test with MOLT-4, 8.09 µM (inactive); in the test with NCI/ADR-RES it was 16.4 µM (inactive); with OVCAR-3 it was 25.1 µM (inactive). Besides, the GI50 in the test with OVCAR-8 was 17.6 µM (inactive); with PC-3 it was 13.9 µM (inactive); in the test on SK-MEL-28 it was 16.2 µM (inactive); with SW-620 it was 16.6 µM (inactive); in the test with U-251, 11.5 µM (inactive); with UACC-62, 12.4 µM (inactive).

Broadly, the GI50 is the concentration giving 50% growth inhibition.
